Experimental data: US11103518B2, “Prostate cancer treatment via synergistic inhibition of aryl hydrocarbon receptor (AhR) and SRC” (Clark Atlanta University, Inc., priority 2016, dated 2021)

Columns and labels:
CYP1B1 = assay: qRT-PCR of CYP1B1 mRNA expression in C4-2 cells; settings: 50 μM CH223191 or 30 μM PP2 alone or in combination, 72 h, normalized to L-19
Protocol: (§1) RNA Extraction and Quantitative qRT-PCR Analysis: Total RNA was isolated from cell monolayers grown in 100 mm tissue culture dishes using RNeasy Mini Kit (Qiagen). 2 μg of the total RNA was reverse-transcribed using the Superscript II kit (Invitrogen), according to the manufacturer's recommendations. The cDNA served as a template in a 25 μl reaction mixture and was processed using the following protocol: an initial denaturation at 95° C. for 3 min, followed by 39 amplification cycles (95° C. for 10 s and 55-65° C. for 30 s), 95° C. for 10 s, 65° C. for 5 s and 95° C. for 50 s. The 25 μl qPCR reaction mixture was mixed with GoTaq qPCR Master Mix (Promega). Melt curve analyses were performed after each run to ensure a single product. Relative gene expression was determined using the ΔΔCq calculation method.
(§2) Primers to amplify the 470-bp cDNA fragment encoding L19 were used as an internal control. L-19: Forward (5′-3′) [sequence] & Reverse (5′-3′) [sequence].
(§3) Each bar represents mean±SEM (n=3) and were analyzed by student t-test. (*) denotes statistically significant differences (*P<0.05) compared to control.

AhR [1] = assay: Cignal XRE luciferase reporter assay in C4-2 cells; format: cell-based, human; settings: C4-2 cells transfected with XRE reporter, FIG. 2A
Protocol: XRE and ARE Binding: 4×10^4 Cells were plated in a 96 well plate. C4-2 cells were transfected with XRE and ARE reporter, as well as with positive and negative control reporter plasmids using attractene. After 16 hours of transfection, media was changed to standard assay media (DMEM+0.5% FBS+0.1 mM NEAA). Cells were grown for an additional 8 hours under normal cell conditions. After 24 hours of transfection, treat the cells and harvested cells 18 hours after treatment. A dual luciferase assay was performed after 42 hours of transfection, and promoter activity values are expressed as arbitrary florescence units (AFU). Experiments were performed in triplicate and the standard error is indicated.
The Cignal XRE and ARE luciferase reporter assays were utilized to determine the activity of AhR and AR signaling pathways in androgen independent (C4-2) prostate cancer cells in the presence and absence of inhibitors. C4-2 cells were transfected with an XRE reporter plasmid & ARE reporter plasmid, as well as with positive and negative control reporter plasmids using attractene. Following transfection, treatments were added to each appropriate plate. A dual luciferase assay was performed and promoter activity values are expressed as arbitrary florescence units (AFU).

KLK3 = settings: C4-2 cells, 50 μM CH223191 or 30 μM PP2 alone or in combination, 72 h, normalized to L-19
Protocol: as §1, §2, §3

AhR [2] = assay: qRT-PCR of AhR mRNA expression in C4-2 cells; settings: 50 μM CH223191 or 30 μM PP2 alone or in combination, 72 h, normalized to L-19
Protocol: as §1, §2, §3

[3] = system: C4-2 prostate cancer cells; assay: Cell cycle analysis; format: cell-based, human; settings: C4-2 cells, 72 hrs; 50 μM CH223191, 30 μM PP2 alone or in combination, FIG. 4B
AR [4] = assay: Nuclear and cytoplasmic fractionation with western blot, AR nuclear localization in C4-2 cells; format: cell-based, human; settings: nuclear fraction normalized with topoisomerase, FIG. 1B
Protocol: In order to address the role of AhR and SRC in this process, a sub-cellular localization was confirmed by immunoblotting following cellular fractionation. […] Cells were washed with cold PBS and cellular fractions were isolated per manufactures instructions using a NE-PER Extraction kit. The nuclear and cytoplasmic fractions were analyzed by western blotting for AhR and AR protein expression. The relative level of cytoplasmic AhR & AR were normalized with β-tubulin expression and the relative level of nuclear AhR & AR were normalized with topoisomerase expression. Blots are representative of three independent experiments.

AhR [5] = biological target: T1, AhR (Homo sapiens, UniProt P35869); settings: even at 100 micromolar; cited from earlier work
T1 sequence (P35869 11-848): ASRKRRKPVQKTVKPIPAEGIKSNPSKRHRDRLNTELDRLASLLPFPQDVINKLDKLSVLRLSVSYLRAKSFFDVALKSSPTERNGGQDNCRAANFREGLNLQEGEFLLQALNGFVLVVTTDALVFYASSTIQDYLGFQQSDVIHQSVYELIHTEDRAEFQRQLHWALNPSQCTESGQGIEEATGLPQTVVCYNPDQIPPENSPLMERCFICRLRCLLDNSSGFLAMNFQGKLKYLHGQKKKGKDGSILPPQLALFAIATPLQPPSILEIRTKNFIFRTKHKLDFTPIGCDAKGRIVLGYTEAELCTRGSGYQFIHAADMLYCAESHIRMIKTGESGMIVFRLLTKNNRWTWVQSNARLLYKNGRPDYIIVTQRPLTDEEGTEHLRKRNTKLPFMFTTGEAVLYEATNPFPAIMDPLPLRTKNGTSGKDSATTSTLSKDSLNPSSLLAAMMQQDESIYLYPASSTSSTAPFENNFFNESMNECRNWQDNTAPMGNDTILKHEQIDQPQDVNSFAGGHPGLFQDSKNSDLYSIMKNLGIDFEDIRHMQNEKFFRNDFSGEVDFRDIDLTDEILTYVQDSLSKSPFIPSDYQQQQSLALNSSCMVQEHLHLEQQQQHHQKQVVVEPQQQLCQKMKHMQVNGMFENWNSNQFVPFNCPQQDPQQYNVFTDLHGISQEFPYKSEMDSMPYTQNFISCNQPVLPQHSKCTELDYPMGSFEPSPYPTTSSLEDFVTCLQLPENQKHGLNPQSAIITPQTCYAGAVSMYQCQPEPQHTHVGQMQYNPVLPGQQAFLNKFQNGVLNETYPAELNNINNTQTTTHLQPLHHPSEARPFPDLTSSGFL

AR [6] = assay: qRT-PCR of AR mRNA expression in C4-2 cells; settings: 50 μM CH223191 or 30 μM PP2 alone or in combination, 72 h, normalized to L-19
Protocol: as §1, §2, §3

estrogen receptor = biological target: T2, estrogen receptor (Homo sapiens, UniProt P03372); settings: cited from earlier work
T2 sequence (P03372 1-595): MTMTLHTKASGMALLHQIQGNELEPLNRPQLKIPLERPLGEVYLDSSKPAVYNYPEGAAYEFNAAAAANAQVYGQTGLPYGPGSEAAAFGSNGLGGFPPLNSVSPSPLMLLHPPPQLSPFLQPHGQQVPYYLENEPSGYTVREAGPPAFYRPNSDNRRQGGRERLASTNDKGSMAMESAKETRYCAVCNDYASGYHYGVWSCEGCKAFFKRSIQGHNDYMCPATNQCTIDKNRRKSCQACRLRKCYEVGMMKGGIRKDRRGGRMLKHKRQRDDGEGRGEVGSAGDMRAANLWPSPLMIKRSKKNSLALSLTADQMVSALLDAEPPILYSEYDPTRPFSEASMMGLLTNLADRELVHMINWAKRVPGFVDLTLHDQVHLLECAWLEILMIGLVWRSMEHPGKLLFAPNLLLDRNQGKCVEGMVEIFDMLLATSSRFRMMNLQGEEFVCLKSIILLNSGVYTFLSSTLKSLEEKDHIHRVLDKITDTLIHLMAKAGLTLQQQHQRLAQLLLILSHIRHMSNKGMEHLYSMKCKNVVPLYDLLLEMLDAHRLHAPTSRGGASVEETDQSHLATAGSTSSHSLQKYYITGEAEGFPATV

AhR [7] = biological target: T1, AhR; settings: cited from earlier work
AR [8] = assay: Cignal ARE luciferase reporter assay in C4-2 cells; format: cell-based, human; settings: C4-2 cells transfected with ARE reporter, FIG. 2B
Protocol: The Cignal XRE and ARE luciferase reporter assays were utilized to determine the activity of AhR and AR signaling pathways in androgen independent (C4-2) prostate cancer cells in the presence and absence of inhibitors. C4-2 cells were transfected with an XRE reporter plasmid & ARE reporter plasmid, as well as with positive and negative control reporter plasmids using attractene. Following transfection, treatments were added to each appropriate plate. A dual luciferase assay was performed and promoter activity values are expressed as arbitrary florescence units (AFU). Each bar represents mean±SEM (n=3) and were analyzed by student t-test. (*) denotes statistically significant differences (*P<0.0001).

[9] = system: C4-2 prostate cancer cells; assay: Promega CellTiter 96 Cell Proliferation Assay; format: cell-based, human; settings: 50 μM CH223191, 30 μM PP2 alone or in combination

In the case of `Cc1ccccc1/N=N/c1ccc(NC(=O)c2ccnn2C)c(C)c1` [CH223191, 2-Methyl-2H-pyrazole-3-carboxylic acid (2-methyl-4-o-tolylazo-phenyl)-amide], the “reduction of CYP1B1 gene expression compared to control” value (CYP1B1) is reported as “more than twofold”, the “decrease in AhR promoter activity (XRE binding) compared to DMSO” value (AhR [1]) is reported as 30% and the “decrease in KLK3 mRNA expression” value (KLK3) is reported as 65%. For the same compound, the “reduction of AhR gene expression compared to control” value (AhR [2]) was “more than twofold”, the “percent of cells in the G0/G1 phase of the cell cycle” value [3] was “increase” and the “presence of AR in the nucleus (AR nuclear localization)” value (AR [4]) was “reduced”. For the same compound, the “stimulation of AhR-dependent transcription (agonist activity)” value (AhR [5]) was “did not stimulate”, the “reduction of AR gene expression” value (AR [6]) was 60% and the “affinity for the estrogen receptor” value (estrogen receptor) was “no affinity”. For the same compound, the “TCDD-mediated nuclear translocation and DNA binding of AhR” value (AhR [7]) was “inhibited”, the “reduction of AR promoter activity compared to DMSO in ARE binding assay” value (AR [8]) was 70% and the “growth of C4-2 cells” value ([9]; 48 and 72 hours) was “significantly inhibited”. The “decrease in overall growth rate compared to DMSO” value ([9]; after 72 hours of exposure) was 25%.
